{"source": "patent US9955683B2", "about": "“Insecticidal apparatus and methods” (priority 2012, dated 2018)", "origin": "cited, not measured here", "key": {"blowfly larvae": {"system": "blowfly larvae", "settings": "sheep"}, "[1]": {"settings": "ruminants; excretion mainly via the feces"}}, "data": [{"compound": "N#Cc1c(N)nc(NC2CC2)nc1N", "note": "[Dicyclanil]", "values": [{"measurement": "duration of protection, blowfly control", "setting": "blowfly larvae; pour-on formulation", "value": "up to 20 wk"}]}, {"compound": "O=C(NC(=O)c1c(F)cccc1F)Nc1ccc(Cl)cc1", "note": "[Diflubenzuron]", "values": [{"measurement": "duration of protection against blowfly strike", "setting": "blowfly larvae; emulsifiable concentrate used as a dip or shower, preventive use", "value": "12-14 wk"}]}, {"compound": "Nc1nc(N)nc(NC2CC2)n1", "note": "[cyromazine]", "values": [{"measurement": "duration for which control of blowfly larvae can be maintained", "setting": "blowfly larvae; after a single pour-on application", "value": "up to 13 wk"}]}, {"compound": "Ivermectin", "values": [{"measurement": "fraction of unaltered molecule excreted in the urine", "setting": "[1]", "value": "< 2", "unit": "%"}]}]}
